Test results reported in publication PMC12006963, “Application of Deuterium in an M1 Positive Allosteric Modulator Back-Up Program: The Discovery of VU6045422” (ACS Chemical Neuroscience, 2025).

Key:
[1] = target: CYP 3A4 (Homo sapiens, UniProt P08684); experiment: CYP inhibition 3A4; assay type: in vitro ADME
Excerpt: Table 1 Pharmacology and In Vitro DMPK Profiles of M1 PAMs 1, 3, and 5 | column: 1; 3; 5

[2] = Hepatocyte metabolite identification (rat); assay type: in vitro ADME; settings: rat hepatocytes, 4 h incubation
Protocol: Prior to full characterization of deuterated analogues 3 and 5, they were incubated in rat, dog, monkey, and human hepatocytes, along with 1, to determine the amount of parent remaining, as well as the degree of undesired oxidative metabolites 2, 4, and 6 (Figure 2). […] For the gem-dideutero congener 3, metabolic stability was improved in vitro. […] Thus, in hepatocytes in vitro, the kinetic isotope effect engendered greater metabolic stability of the labile hot spot on the lactam. It remained to be seen if this effect would translate in vivo, but we first had to assess the impact of the deuterated analogues on molecular pharmacology, in vitro DMPK, standard low-dose in vivo DMPK and, if warranted, in vivo efficacy in a rat novel object recognition (NOR) behavioral assay.

[3] = Brain to plasma ratio in rat; assay type: in vivo; settings: male, Sprague-Dawley, brain and plasma, intravenous, 0.2 mg/kg, rat (SD); for Kp at 15 min: brain/plasma; for Kp uu at 15 min: unbound brain/unbound plasma
Protocol: where Qh (hepatic blood flow, mL/min/kg) is 21 (human) or 70 (rat).
LC/MS/MS Bioanalysis of Samples from Plasma Protein Binding and Intrinsic Clearance […]
Samples were analyzed on a Thermo Electron TSQ Quantum Ultra triple quad mass spectrometer (San Jose, CA) via electrospray ionization (ESI) with two Themo Electron Accella pumps (San Jose, CA), and a Leap Technologies CTC PAL autosampler (Carrboro, NC). Analytes were separated by gradient elution on a dual column system with two Thermo Hypersil Gold (2.1 x 30 mm, 1.9 µm) columns (San Jose, CA) thermostated at 40 °C. HPLC mobile phase A was 0.1% formic acid in water and mobile phase B was 0.1% formic acid in acetonitrile. The gradient started […]
for 0.2 min; returned to 10% B in 0.1 min. The total run time was 1.3 min and the HPLC flow rate was 0.8 mL/min. While pump 1 ran the gradient method, pump 2 equilibrated the alternate column isocratically at 10% B. Compound optimization, data collection, and processing was performed using Thermo Electron's QuickQuan software (v2.3) and Xcalibur (v2.0.7 SP1).
In vivo DMPK experimental:
Determination of brain to plasma ratio:
All animal study procedures were approved by the Institutional Animal Care and Use Committee and were conducted in accordance with the National Institutes of Health regulations of animal care covered in Principles of Laboratory Animal Care (National Institutes of Health). All rats were fasted overnight prior to testing.
For determination of the brain over plasma ratio (Kp), compounds were formulated in 8% ethanol, 32% PEG400 and 60% DMSO (v/v/v) and administered as a single 0.2 mg/kg IV dose (1 mL/kg) to male, Sprague Dawley rats (n = 1) via injection into a surgically-implanted jugular vein catheter. At 15 min post dosing, blood sample was collected into chilled, K2EDTA anticoagulant-fortified tube and immediately placed on wet ice. The blood sample was then centrifuged (1700 rcf, 5 minutes, 4 °C) to obtain plasma sample. At the same post-administration time point, whole brain sample was obtained by rapid dissection, rinsed with PBS, and immediately frozen in individual tissue collection box (dry ice). All brain and plasma samples were stored at -80 °C until […]
Sample Analysis: Concentrations in plasma and brain homogenates were quantified by liquid chromatography tandem mass spectrometry (LC-MS/MS). Whole brains were homogenized in 3 mL of 70:30 IPA:water in a mini bead beater for 3 min, and centrifuged at 3,500 g for 5 min. 5 uL of the supernatant was diluted in 15 uL of blank plasma for quantification of the analytes. Plasma samples were centrifuged at 3,500 g for 5 min. A standard curve was generated by diluting the analytes DMSO stocks with blank plasma to obtain a final concentration of 10,000 ng/ml followed by a serial dilution down to 0.5 ng/ml. Quality controls were generated by a serial dilution of the 5,000 ng/ml standard curve solution in blank plasma to obtain 3 concentrations of 500, 50, and 5 ng/ml. 20 uL of brain diluted in plasma, plasma, blank plasma, standard curve and QC samples were loaded in a V-bottom 96-well plate. 120 uL of acetonitrile containing 0.05 uM carbamazepine (internal standard) was added to each well and the plate was centrifuged at 3,500 g for 5 min. 60 uL of the supernatant of each well (protein free) was transferred to a new 96-well plate containing 60 uL of water. The plates were sealed for analysis by LC-MS/MS.
Plasma and brain tissue samples originating from in vivo studies were analyzed by electrospray ionization using an AB Sciex Q-TRAP 5500 (Foster City, CA) that was coupled to a Shimadzu LC-20AD pump (Columbia, MD) and a Leap Technologies CTC PAL auto-sampler (Carrboro, NC). Analytes were separated by gradient elution using a C18 column (3 x 50 mm, 3 mm; Fortis Technologies Ltd, Cheshire, UK) that was thermostated at 40 °C. HPLC mobile phase A was 0.1% formic acid in water (pH unadjusted); mobile phase B was 0.1% formic acid in acetonitrile (pH […]

[4] = Plasma protein binding, equilibrium dialysis (human); assay type: in vitro ADME; settings: pH 7.4, read-out: fu,plasma
Protocol: page 5: Drug Metabolism Methods: In vitro Plasma protein binding and Brain homogenate binding: Determination of fraction unbound (f u) in plasma was conducted in vitro via equilibrium dialysis using HTDialysis (HTD) membrane plates. The top half of the plate was filled with 100 uL of Dubelco’s Phosphate Buffered Saline, pH 7.4 (DPBS). Compounds were diluted into plasma from each species (5 µM final concentration), which was aliquoted in triplicate to the ‘bottom half’ of the prepared HTD plate wells. The HTD plate was sealed and incubated for 6 hours at 37 °C. Following incubation, each well (both top and bottom halves) were transferred (20 µL) to the corresponding wells of a 96- shallow-well (V-bottom) plate. The daughter plates were then matrix-matched (DPBS side wells received equal volume of plasma, and plasma side wells received equal volume of DPBS), and extraction solution (120 µL; acetonitrile containing 50 nM carbamazepine as IS) was added to all wells of both daughter plates to precipitate protein and extract test article. The plates were then sealed and centrifuged (3500 rcf) for 10 minutes at ambient temperature. Supernatant (60 µL) from each well of the daughter plates was then transferred to the corresponding wells of new daughter plates (96-shallow-well, V bottom) containing water (Milli-Q, 60 µL/well), and the plates were sealed in preparation for LC-MS/MS analysis (see LC-MS/MS analysis method below). The unbound fraction (f u) was calculated following the equation below, and mean values for each species were calculated from 3 replicates. […] Fraction unbound for both plasma and brain samples was determined using Equation 4. f = Concbuffer u Concplasma Equation 4 Determination of fraction unbound in plasma. […]

Chain of CYP 3A4 (P08684 whole entry): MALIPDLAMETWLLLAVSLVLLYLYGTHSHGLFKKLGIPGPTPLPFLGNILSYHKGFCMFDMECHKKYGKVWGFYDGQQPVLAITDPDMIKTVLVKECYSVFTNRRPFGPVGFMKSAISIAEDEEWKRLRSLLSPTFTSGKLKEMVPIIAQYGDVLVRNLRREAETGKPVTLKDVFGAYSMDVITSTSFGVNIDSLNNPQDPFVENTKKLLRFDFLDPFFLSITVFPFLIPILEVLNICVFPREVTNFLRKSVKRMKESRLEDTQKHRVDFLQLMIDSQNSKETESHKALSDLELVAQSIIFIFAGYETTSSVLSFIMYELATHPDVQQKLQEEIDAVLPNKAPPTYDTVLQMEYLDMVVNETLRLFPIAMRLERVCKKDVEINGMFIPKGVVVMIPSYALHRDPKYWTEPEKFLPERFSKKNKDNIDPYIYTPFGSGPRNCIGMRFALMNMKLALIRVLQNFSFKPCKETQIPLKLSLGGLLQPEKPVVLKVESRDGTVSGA

Structure (SMILES) | IC50 [1] [µM] | % Total Peak Area, parent remaining [2] [%] | Kp at 15 min [3] | Kp uu at 15 min [3] | fraction unbound at 6 h, 5 µM [4]
Cn1cc2c(-c3cc(F)c(CN4Cc5ncccc5C4=O)c(F)c3)cccc2n1 [compound 1] | > 30 | 76.3 | 0.77 | 1.3 | 0.034
[2H]C1([2H])c2ncccc2C(=O)N1Cc1c(F)cc(-c2cccc3nn(C)cc23)cc1F [compound 3] | > 30 | 87.0 | 0.63 | 0.57 | 0.051
[2H]C1([2H])c2ncccc2C(=O)N1Cc1c(F)cc(-c2cccc3nn(C([2H])([2H])[2H])cc23)cc1F [compound 5] | 28.6 | 87.7 | 1.1 | 1.5 | 0.036
